Measured values published in US5817639A, “Purine 4'-thioarabinonucleosides” (Yamasa Corporation, priority 1995, dated 1998).
≈ marks a conversion by molar mass, not a printed value.

Assays:
[1] = test system: HCMV (AD-169 strain); experiment: Anti-Human Cytomegalovirus activity (plaque formation inhibition in human fetal lung fibroblasts); assay type: cell-based; conditions: Human betaherpesvirus 5, AD169, Fibroblast, 50% inhibition of plaque formation, human fibroblasts derived from fetal lungs, 4 days plus further 4-5 days, read-out: ED50 HCMV
Experimental: (§1) 1. Human fibroblasts derived from fetal lungs were subjected to subculturing in Eagle MEM supplemented with 10% semi-fetal calf serum (Mitsubishi Chemical Corporation) at a 1:2-4 split every 4 days.
2. A suspension of cells obtained by splitting their parent cells (1:2) was seeded in a 12-well multi-plate (2 ml/well), followed by culturing for 4 days at 37° C. in a CO2 -incubator.
3. The culture liquid was discarded, and 750 μl of a 5% serum-added Eagle MEM containing 50-100 PFU of AD-169 strain of HCMV was inoculated, and the virus was allowed to be adsorbed for 1 hour at 37° C.
4. Without removing the virus, 750 μl of Hanks' MEM containing the test compound was added, and the resultant mixture was incubated in a CO2 -incubator at 37° C. for 4 days. Generally, a test compound is diluted in serial 1/2 log10, and the maximal concentration is 10 μg/ml.
5. The medium was changed to a fresh 2.5% serum-added Eagle MEM containing 0.8% methylcellulose and the test compound having the same concentration, followed by culturing further for 4-5 days.
(§2) 6. The culture liquid was discarded, and the cells were stained with May-Gruenwald's-Giemsa (×10). Under a stereoscopic light microscope, the number of plaques in each well was counted. Using the equation used in (1) above, the plaque formation inhibitory ratio was obtained.
7. […]

[2] = test system: HSV-1 (VR-3 strain); experiment: Anti-HSV-1 activity (plaque formation inhibition in human fetal lung fibroblasts); assay type: cell-based, herpes simplex virus type 1; conditions: Human alphaherpesvirus 1, Fibroblast, 50% inhibition of plaque formation, human fibroblasts derived from fetal lungs, 2-3 days at 37° C., read-out: ED50 HSV-1
Experimental: (§3) 1. Human fibroblasts derived from fetal lungs were subjected to subculturing in Eagle MEM supplemented with 10% semi-fetal calf serum (Mitsubishi Chemical Corporation) at a 1:2-4 split every 4 days. 2. A suspension of cells obtained by splitting their parent cells (1:2) was seeded in a 12-well multi-plate (2 ml/well), followed by culturing for 4-5 days at 37° C. in a CO2 -incubator. 3. The culture liquid was discarded, and Hanks' MEM (250 μl) containing 50-150 PFU of VR-3 strain of HSV-1 or MS strain of HSV-2 was inoculated, and the virus was allowed to be adsorbed for 30 minutes at 37° C. Thereafter, the viral liquid was discarded. 4. A 2.5% serum-added Eagle MEM containing a test compound and 0.8% methylcellulose was added and the resultant mixture was incubated in a CO2 -incubator for 2-3 days at 37° C. Generally, a test compound is diluted in serial 1/2 log10, and the maximal concentration is 10 μg/ml. 5. The culture liquid was discarded, and the cells were stained with a 0.5% crystal violet solution. Under a stereoscopic light microscope, the number of plaques in each well was counted. Using the equation below, the plaque formation inhibitory ratio (percent inhibition) was obtained. […]

[3] = test system: VZV (Oka strain); experiment: Anti-Varicella Zoster Virus (VZV) activity (plaque formation inhibition in human fetal lung fibroblasts); assay type: cell-based; conditions: Human alphaherpesvirus 3, Fibroblast, read-out: ED50 VZV
Experimental: as §1
2. A suspension of cells obtained by splitting their parent cells (1:2) was seeded in a 12-well multi-plate (2 ml/well), followed by culturing for 4-5 days at 37° C. in a CO2 -incubator.
3. The culture liquid was discarded, and 750 μl of a 5% serum-added Eagle MEM containing 50-100 PFU of Oka strain of VZV was inoculated, and the virus was allowed to be adsorbed for 1 hour at 37° C.
4. Without removing the virus, 750 μl of Hanks' MEM containing the test compound was added, and the resultant mixture was incubated in a CO2 -incubator at 37° C. Generally, a test compound is diluted in serial 1/2 log10, and the maximal concentration is 10 μg/ml.
as §2, with “5. After culturing for 4-5 days, the” for “6. The”, “a 0.5% crystal violet solution.” for “May-Gruenwald's-Giemsa (×10).”
6. The plaque formation inhibitory ratio was plotted on a graph with respect to the concentration of the test compound (logarithmic representation).

[4] = test system: HSV-2 (MS strain); experiment: Anti-HSV-2 activity (plaque formation inhibition in human fetal lung fibroblasts); assay type: cell-based, herpes simplex virus type 2; conditions: Human alphaherpesvirus 2, Fibroblast, 50% inhibition of plaque formation, human fibroblasts derived from fetal lungs, 2-3 days at 37° C., read-out: ED50 HSV-2
Experimental: as §3

SMILES	EC50 [1] [µg/mL]	EC50 [2] [µg/mL]	EC50 [3] [µg/mL]	EC50 [4] [µg/mL]
Nc1nc(N)c2ncn([C@@H]3S[C@H](CO)[C@@H](O)[C@@H]3O)c2n1 [Ia-β, 9-(4-thio-β-D-arabinofuranosyl)-2,6-diaminopurine]	0.022	0.52 (≈ 1.74 µM)	0.11 (≈ 0.369 µM)	0.4 (≈ 1.34 µM)
Nc1nc2c(ncn2[C@@H]2S[C@H](CO)[C@@H](O)[C@@H]2O)c(=O)[nH]1 [Ib-β, 9-(4-thio-δ-D-arabinofuranosyl)guanine]	0.011	0.49 (≈ 1.64 µM)	0.11 (≈ 0.368 µM)	0.59 (≈ 1.97 µM)
